The values that follow are results of earlier work, collected in US20220192984A1, “PHARMACEUTICAL COMPOSITIONS COMPRISING OTIC THERAPEUTIC AGENTS AND RELATED METHODS” (Frequency Therapeutics, Inc., priority 2018, published 2022).

The structures appear in SMILES notation.

This data set has as its target HER4 (Homo sapiens, UniProt Q15303). Conditions: cited from earlier work.

Sequence of HER4 (Q15303 26-1308, species assumed): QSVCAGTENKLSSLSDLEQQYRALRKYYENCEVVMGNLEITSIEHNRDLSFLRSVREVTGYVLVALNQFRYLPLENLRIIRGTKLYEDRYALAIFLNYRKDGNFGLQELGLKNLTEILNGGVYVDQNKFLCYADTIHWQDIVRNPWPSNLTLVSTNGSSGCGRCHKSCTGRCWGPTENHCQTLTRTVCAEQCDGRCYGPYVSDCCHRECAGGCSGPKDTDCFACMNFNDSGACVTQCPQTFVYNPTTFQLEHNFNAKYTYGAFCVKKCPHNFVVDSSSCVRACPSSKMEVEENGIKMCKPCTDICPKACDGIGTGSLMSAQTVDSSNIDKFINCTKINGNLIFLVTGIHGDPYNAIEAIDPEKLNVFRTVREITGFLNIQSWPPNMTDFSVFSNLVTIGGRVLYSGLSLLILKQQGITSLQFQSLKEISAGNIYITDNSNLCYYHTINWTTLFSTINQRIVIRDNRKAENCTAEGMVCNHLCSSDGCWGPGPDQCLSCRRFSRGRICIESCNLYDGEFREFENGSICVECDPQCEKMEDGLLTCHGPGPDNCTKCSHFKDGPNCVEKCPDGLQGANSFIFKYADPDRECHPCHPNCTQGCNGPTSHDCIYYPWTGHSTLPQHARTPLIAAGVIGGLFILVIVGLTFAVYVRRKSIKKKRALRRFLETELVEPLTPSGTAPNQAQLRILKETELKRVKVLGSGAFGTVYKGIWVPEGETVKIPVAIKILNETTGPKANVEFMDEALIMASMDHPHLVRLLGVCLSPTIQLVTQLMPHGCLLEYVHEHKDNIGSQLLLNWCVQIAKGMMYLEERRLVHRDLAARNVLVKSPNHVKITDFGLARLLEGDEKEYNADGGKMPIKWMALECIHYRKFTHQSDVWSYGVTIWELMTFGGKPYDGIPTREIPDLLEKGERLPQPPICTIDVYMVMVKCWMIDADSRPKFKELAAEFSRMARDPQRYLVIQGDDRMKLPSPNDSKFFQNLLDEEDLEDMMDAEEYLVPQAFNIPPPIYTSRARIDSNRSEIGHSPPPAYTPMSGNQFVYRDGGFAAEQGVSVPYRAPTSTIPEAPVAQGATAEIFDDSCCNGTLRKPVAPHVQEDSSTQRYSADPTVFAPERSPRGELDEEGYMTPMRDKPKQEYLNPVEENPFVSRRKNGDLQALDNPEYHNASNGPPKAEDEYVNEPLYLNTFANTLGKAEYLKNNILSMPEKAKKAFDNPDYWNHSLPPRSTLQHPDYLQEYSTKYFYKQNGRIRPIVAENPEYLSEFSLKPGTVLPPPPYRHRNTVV

Regarding `CNC(=O)CN1CCC(Oc2cc3c(Nc4cccc(Cl)c4F)ncnc3cc2OC)CC1` [Sapitinib/AZD8931/], the IC50 (usually the concentration that gives 50% inhibition) is 3 nM.
